Values after ≈ are worked out from the molar mass of the structure shown. Like-named read-outs stand apart in the source and are kept apart here.
System: Mycobacterium tuberculosis strain H37Rv
Assay: Test 2: MIC determination against M. tuberculosis, resazurin fluorescence
Assay type: cell-based
Settings: Test 2, M. tuberculosis H37Rv; for MIC90: read-out: Bacterial activity MIC90; for IC50: read-out: Bacterial activity pMIC50 (converted)
[1] = Mycobacterium tuberculosis, H37RV

Row | SMILES | MIC90 [1] [µM] | IC50 [1] [pM] | Bacterial activity pMIC50 | MIC90 [µM]
1 | CCc1nc2n(c1C(=O)NCc1ccc(-c3nc4n(n3)CC[C@H](C(F)(F)F)C4)cc1)C[C@H](C)CC2 (single isomer, unassigned) [Compound 65] | 0.039 (≈ 0.019 µg/mL) | 13500 | – | –
2 | CCc1nc2n(c1C(=O)NCc1ccc(-c3nc4n(n3)CC[C@@H](C(F)(F)F)C4)cc1)CC[C@H](C)C2 (single isomer, unassigned) [Compound 66] | 0.24 (≈ 0.117 µg/mL) | 51300 | – | –
3 | CCc1nc2n(c1C(=O)NCc1ccc(-c3nc4n(n3)CC[C@H](C(F)(F)F)C4)cc1)CC[C@@H](C)C2 (single isomer, unassigned) [Compound 67] | 0.18 (≈ 0.0876 µg/mL) | 40700 | – | –
4 | CCc1nc2n(c1C(=O)NCc1ccc(-c3nc4n(n3)CC[C@H](C(F)(F)F)C4)cc1)CC[C@H](C)C2 (single isomer, unassigned) [Compound 68] | 0.23 (≈ 0.112 µg/mL) | 47900 | – | –
5 | CCc1nc2n(c1C(=O)NCc1ccc(-c3nc4n(n3)CC[C@H](C(F)(F)F)C4)cc1)C[C@@H](C)CC2 (single isomer, unassigned) [Compound 69] | – | – | 7.95 | 0.031 (≈ 0.0151 µg/mL)
6 | CCc1nc2n(c1C(=O)NCc1ccc(-c3nc4n(n3)CC[C@@H](C(F)(F)F)C4)cc1)CC[C@@H](C)C2 (single isomer, unassigned) [Compound 70] | 0.23 (≈ 0.112 µg/mL) | 56200 | – | –
7 | CCc1nc2n(c1C(=O)NCc1ccc(-c3nc4n(n3)CC[C@@H](C(F)(F)F)C4)cc1)C[C@H](C)CC2 (single isomer, unassigned) [Compound 71] | 0.024 (≈ 0.0117 µg/mL) | 9550 | – | –
8 | CCc1nc2n(c1C(=O)NCc1ccc(-c3nc4n(n3)CC[C@@H](C(F)(F)F)C4)cc1)C[C@@H](C)CC2 (single isomer, unassigned) [Compound 72] | 0.042 (≈ 0.0204 µg/mL) | 13800 | – | –
9 | CCc1nc2n(c1C(=O)NCc1ccc(-c3nc4n(n3)CC[C@H](C(F)(F)F)C4)cc1)C[C@@H](C)CC2 (single isomer, unassigned) [Compound 75] | – | – | 7.48 | 0.086 (≈ 0.0418 µg/mL)
10 | CCc1nc2n(c1C(=O)NCc1ccc(-c3nc4n(n3)CC[C@@H](C(F)(F)F)C4)c(F)c1)CCCC2 (single isomer, unassigned) [Compound 76] | – | – | 7.55 | 0.09 (≈ 0.0441 µg/mL)
11 | CCc1nc2ccccn2c1C(=O)NCc1ccc(-c2nc3n(n2)CC[C@@H](C(F)(F)F)C3)c(F)c1 (single isomer, unassigned) [Compound 78] | – | – | 8.08 | 0.028 (≈ 0.0136 µg/mL)
12 | CCc1nc2ccccn2c1C(=O)NCc1ccc(-c2nc3n(n2)CC[C@H](C(F)(F)F)C3)c(F)c1 (single isomer, unassigned) [Compound 79] | – | – | 7.99 | 0.035 (≈ 0.017 µg/mL)
13 | CCc1nn2c(c1C(=O)NCc1ccc(-c3nc4n(n3)CC[C@H](C(F)(F)F)C4)cc1)C[C@H](C)CC2 (single isomer, unassigned) [Compound 81] | 0.19 (≈ 0.0924 µg/mL) | 57500 | – | –
14 | CCc1nn2c(c1C(=O)NCc1ccc(-c3nc4n(n3)CC[C@@H](C(F)(F)F)C4)cc1)C[C@@H](C)CC2 (single isomer, unassigned) [Compound 82] | 0.087 (≈ 0.0423 µg/mL) | 30900 | – | –
15 | CCc1nn2c(c1C(=O)NCc1ccc(-c3nc4n(n3)CC[C@@H](C(F)(F)F)C4)cc1)C[C@H](C)CC2 (single isomer, unassigned) [Compound 83] | 0.23 (≈ 0.112 µg/mL) | 63100 | – | –
16 | CCc1nc2ncc(C)cn2c1C(=O)NCc1ccc(-c2nc3n(n2)CCC(C)C3)cc1 (single isomer, unassigned) [Compound 94] | – | – | 7.86 | 0.039 (≈ 0.0168 µg/mL)
17 | CCc1nc2ncc(C)cn2c1C(=O)NCc1ccc(-c2nc3n(n2)CC[C@@H](C(C)(F)F)C3)cc1 (single isomer, unassigned) [Compound 104] | – | – | 8.25 | 0.015 (≈ 0.00719 µg/mL)
18 | CCc1nc2ncc(C)cn2c1C(=O)NCc1ccc(-c2nc3n(n2)CC[C@H](C(C)(F)F)C3)cc1 (single isomer, unassigned) [Compound 105] | – | – | 8.24 | 0.014 (≈ 0.00671 µg/mL)
19 | CCc1nc2ncc(C)cn2c1C(=O)NCc1ccc(-c2cn3c(n2)CC(COC)CC3)cc1 (single isomer, unassigned) [Compound 118] | – | – | 7.48 | 0.083 (≈ 0.0381 µg/mL)
20 | CCc1nc2n(c1C(=O)NCc1ccc(-c3nc4n(n3)CC[C@H](C(F)(F)F)C4)cc1)CC[C@@H](O)C2 (single isomer, unassigned) [Compound 131] | > 0.5 | > 501000 | – | –
21 | CCc1nc2n(c1C(=O)NCc1ccc(-c3nc4n(n3)CC[C@H](C(F)(F)F)C4)cc1)CC[C@H](O)C2 (single isomer, unassigned) [Compound 132] | > 0.45 | > 269000 | – | –
22 | CCc1nc2n(c1C(=O)NCc1ccc(-c3nc4n(n3)CC[C@H](C(F)(F)F)C4)cc1)CC[C@H](OC)C2 (single isomer, unassigned) [Compound 135] | > 0.44 | > 224000 | – | –
23 | CCc1nc2n(c1C(=O)NCc1ccc(-c3nc4n(n3)CC[C@H](C(F)(F)F)C4)cc1)CC[C@@H](C(F)(F)F)C2 (single isomer, unassigned) [Compound 136] | > 0.5 | > 501000 | – | –
24 | CCc1nc2n(c1C(=O)NCc1ccc(-c3nc4n(n3)CC[C@H](C(F)(F)F)C4)cc1)CC[C@H](C(F)(F)F)C2 (single isomer, unassigned) [Compound 137] | > 0.5 | > 501000 | – | –
25 | CCc1nc2n(c1C(=O)NCc1ccc(-c3nc4n(n3)CC[C@H](C(F)(F)F)C4)cc1)CC[C@@H](OC)C2 (single isomer, unassigned) [Compound 139] | > 0.45 | > 182000 | – | –

Row | SMILES | MIC90 [1] [µM] | IC50 [1] [pM] | Bacterial activity pMIC50 | MIC90 [µM]
26 | CCc1nc2ncc(C(F)(F)F)cn2c1C(=O)NCc1ccc(-c2nc3n(n2)CC[C@H](C)C3)cc1 (single isomer, unassigned) [Compound 191] | > 0.5 | > 501000 | – | –
27 | CCc1nc2ncc(C)cn2c1C(=O)NCc1ccc(-c2nc3n(n2)CCC(C(F)(F)F)C3)nn1 (stereo not shown) [Compound 41] | > 0.5 | > 501000 | – | –
28 | CCc1nc2ncc(C)cn2c1C(=O)NCc1ccc(-c2nc3n(n2)CCC(C(F)(F)F)C3)nc1 (stereo not shown) [Compound 43] | 0.37 (≈ 0.179 µg/mL) | 155000 | – | –
29 | CCc1nc2ncc(C)cn2c1C(=O)NCc1cc(C)c(-c2nc3n(n2)CCC(C(F)(F)F)C3)c(F)c1 (stereo not shown) [Compound 44] | 0.21 (≈ 0.108 µg/mL) | 45700 | – | –
30 | CCc1nc2ncc(C)cn2c1C(=O)NCc1cnc(-c2nc3n(n2)CCC(C(F)(F)F)C3)c(F)c1 (stereo not shown) [Compound 45] | 1.05 (≈ 0.528 µg/mL) | 245000 | – | –
31 | CCc1nc2ncc(C)cn2c1C(=O)NCc1cnc(-c2nc3n(n2)CCC(C(F)(F)F)C3)c(C)c1 (stereo not shown) [Compound 46] | > 0.5 | > 501000 | – | –
32 | O=C(NCc1cnc(-c2nc3n(n2)CCC(C(F)(F)F)C3)c(F)c1)c1c(C(F)(F)F)nc2ccccn12 (stereo not shown) [Compound 47] | > 0.5 | > 501000 | – | –
33 | CCc1nc2ncc(OC)cn2c1C(=O)NCc1ccc(-c2nc3n(n2)CC[C@@H](C(F)(F)F)C3)cc1 [Compound 48] | 0.026 (≈ 0.013 µg/mL) | 8320 | – | –
34 | CCc1nc2ccc(F)cn2c1C(=O)NCc1ccc(-c2nc3n(n2)CC[C@@H](C(F)(F)F)C3)cc1 [Compound 52] | 0.16 (≈ 0.0778 µg/mL) | 41700 | – | –
35 | O=C(NCc1ccc(-c2nc3n(n2)CC[C@@H](C(F)(F)F)C3)cc1)c1c(C(F)(F)F)nc2ncccn12 [Compound 53] | 0.036 (≈ 0.0183 µg/mL) | 11000 | – | –
36 | O=C(NCc1ccc(-c2nc3n(n2)CC[C@@H](C(F)(F)F)C3)cc1)c1c(C(F)(F)F)nc2n1CCCC2 [Compound 54] | 0.22 (≈ 0.113 µg/mL) | 72400 | – | –
37 | CCc1nc2ccccn2c1C(=O)NCc1ccc(-c2nc3n(n2)CC[C@@H](C(F)(F)F)C3)cc1 [Compound 55] | 0.0086 (≈ 0.00403 µg/mL) | 2950 | – | –
38 | CCc1nc2ccccn2c1C(=O)NCc1ccc(-c2nc3n(n2)CC[C@H](C(F)(F)F)C3)cc1 [Compound 57] | 0.022 (≈ 0.0103 µg/mL) | 6920 | – | –
39 | O=C(NCc1ccc(-c2nc3n(n2)CC[C@H](C(F)(F)F)C3)cc1)c1c(C(F)(F)F)nc2n1CCCC2 [Compound 58] | 0.39 (≈ 0.2 µg/mL) | 95500 | – | –
40 | O=C(NCc1ccc(-c2nc3n(n2)CC[C@H](C(F)(F)F)C3)cc1)c1c(C(F)F)nc2ccccn12 [Compound 60] | 0.067 (≈ 0.0329 µg/mL) | 17400 | – | –
41 | O=C(NCc1ccc(-c2nc3n(n2)CC[C@@H](C(F)(F)F)C3)cc1)c1c(C(F)F)nc2ccccn12 [Compound 61] | 0.036 (≈ 0.0177 µg/mL) | 11000 | – | –
42 | CCc1nc2ccc(C(F)(F)F)cn2c1C(=O)NCc1ccc(-c2nc3n(n2)CC[C@@H](C(F)(F)F)C3)cc1 [Compound 63] | > 0.46 | > 224000 | – | –
43 | CCc1nc2ccc(C(F)(F)F)cn2c1C(=O)NCc1ccc(-c2nc3n(n2)CC[C@H](C(F)(F)F)C3)cc1 [Compound 64] | > 0.5 | > 501000 | – | –
44 | CCc1nc2ncc(OC(F)(F)F)cn2c1C(=O)NCc1ccc(-c2nc3n(n2)CC[C@H](C(F)(F)F)C3)cc1 [Compound 84] | > 0.38 | > 93300 | – | –
45 | CCc1nc2ncc(OC(F)(F)F)cn2c1C(=O)NCc1ccc(-c2nc3n(n2)CC[C@@H](C(F)(F)F)C3)cc1 [Compound 85] | > 0.5 | > 501000 | – | –
46 | CCc1nc2ncccn2c1C(=O)NCc1ccc(-c2nc3n(n2)CC[C@@H](C(F)(F)F)C3)c(C)c1 [Compound 86] | – | – | 6.98 | 0.44 (≈ 0.213 µg/mL)
47 | CCc1nc2ncccn2c1C(=O)NCc1ccc(-c2nc3n(n2)CC[C@H](C(F)(F)F)C3)c(C)c1 [Compound 87] | – | – | 6.97 | 0.47 (≈ 0.227 µg/mL)
48 | CCc1nc2ncc(C)cn2c1C(=O)NCc1ccc(-c2cn3c(n2)CCCC3)cc1 [Compound 88] | 0.099 (≈ 0.041 µg/mL) | 37200 | – | –
49 | CCc1nc2nc(C)c(Cl)cn2c1C(=O)NCc1ccc(-c2cn3c(n2)CC(C(F)(F)F)CC3)cc1 (stereo not shown) [Compound 90] | 0.15 (≈ 0.0775 µg/mL) | 60300 | – | –
50 | CCc1nc2nc(C)ccn2c1C(=O)NCc1ccc(-c2nc3n(n2)CCC(C)C3)cc1 (stereo not shown) [Compound 92] | 0.2 (≈ 0.0859 µg/mL) | 61700 | – | –

— patent US20250034171A1, “IMIDAZOPYRIDINE AMIDES AND RELATED COMPOUNDS FOR USE IN THE TREATMENT OF BACTERIAL INFECTIONS” (priority 2021, published 2025)
